# Source: patent publication US20100022509A1, “Inhibitors of MshC and Homologs Thereof, and Methods of Identifying Same” (priority 2006, published 2010)
# Read-outs that look alike come from different tables or passages of the source.
# Molecular target: T1, MshC (Mycobacterium tuberculosis, UniProt P9WJM9)
# T1 sequence (P9WJM9 1-414): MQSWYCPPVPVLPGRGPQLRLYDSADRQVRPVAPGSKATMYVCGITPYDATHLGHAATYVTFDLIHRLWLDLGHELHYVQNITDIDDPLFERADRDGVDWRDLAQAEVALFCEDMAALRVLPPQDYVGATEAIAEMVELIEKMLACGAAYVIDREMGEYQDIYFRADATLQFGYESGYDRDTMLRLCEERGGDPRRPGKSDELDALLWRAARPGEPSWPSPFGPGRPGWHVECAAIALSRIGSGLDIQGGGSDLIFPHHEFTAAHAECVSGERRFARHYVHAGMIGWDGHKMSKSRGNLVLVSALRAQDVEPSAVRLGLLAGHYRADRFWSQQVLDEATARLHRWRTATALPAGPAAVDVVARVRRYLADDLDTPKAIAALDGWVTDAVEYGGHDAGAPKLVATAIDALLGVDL
# Assay: biochemical
# Format: biochemical, M. tuberculosis
Compound,IC50 (IC50) [µM],"inhibition of MshC in words, compounds grouped by X (X=S, X=SO, X=SO2)","IC50 (IC50, μM) [µM]",also measured
O=C(NCCCN1CCN(c2ccc(F)cc2)CC1)c1ccc2c(c1)N(Cc1ccc(Cl)cc1)C(=O)c1ccccc1S2(=O)=O [Inhibitor 83-32],~2000,,,"inhibition of MshC in words, compounds lacking the basic amino group or with groups in excess of 10 carbons on the remote amino residue: little or no inhibition"
CN(CCCNC(=O)c1ccc2c(c1)N(Cc1ccc(Cl)cc1)C(=O)c1ccccc1S2(=O)=O)C1CCCCC1 [Inhibitor 83-35],350 ± 40,Significant inhibition,,
CCC1CCCCN1CCCNC(=O)c1ccc2c(c1)N(Cc1cccc(Cl)c1)C(=O)c1ccccc1S2(=O)=O (centres unmarked) [Inhibitor 1954],,Significant inhibition,1100 ± 200,"inhibition of MshC in words, 1,3-diaminopropyl residue with remote amino residue capable of protonation: measurable inhibition; inhibition of MshC in words, Z is a benzyl moiety bearing one or more halogens: Measurable inhibition"
CC1CC(C)CN(CCCNC(=O)c2ccc3c(c2)N(Cc2ccccc2F)C(=O)c2ccccc2S3(=O)=O)C1 (centres unmarked) [Inhibitor 1138],,,> 3000,
CCN1C(=O)c2ccccc2[S+]([O-])c2ccc(C(=O)NCCCN3CCCCCC3)cc21 (centres unmarked) [Inhibitor 83-15],> 3000,,,
O=C(NCCCN1CCCC1)c1ccc2c(c1)N(Cc1ccc(Cl)cc1)C(=O)c1ccccc1S2(=O)=O [Inhibitor 83-28],250 ± 100,,,"inhibition of MshC in words, 1,3-diaminopropyl residue with remote amino residue capable of protonation: measurable inhibition; inhibition of MshC in words, Z is a benzyl moiety bearing one or more halogens: Measurable inhibition; inhibition of MshC in words, compounds grouped by X: Significant inhibition"
CN(CCCNC(=O)c1ccc2c(c1)N(Cc1cccc(Cl)c1)C(=O)c1ccccc1[S+]2[O-])C1CCCCC1 (centres unmarked) [NTF1836],,,,"IC50 (50, 100 and 200 μM in 0.005% Triton X-100, reciprocal plot of velocity versus inhibitor concentration, read-out: IC50): ~100 µM; IC50 (read-out: IC50 for MshC activity in an vitro enzyme assay): 100 µM"
"Nc1ncnc2c1ncn2[C@@H]1O[C@H](COS(=O)(=O)NC(=O)[C@@H](N)CS)[C@@H](O)[C@H]1O [5′-O-[N-(L-cysteinyl)sulfamoyl]adenosine, reference compound]",,,,"IC50 (assayed under the conditions described in [0186], read-out: IC50 (inhibits MshC)): ~0.04 µM"
CCCCN(C)CCCNC(=O)c1ccc2c(c1)N(Cc1cccc(Cl)c1)C(=O)c1ccccc1[S+]2[O-] (centres unmarked) [Inhibitor 83-60],,Significant inhibition,,
CCN1C(=O)c2ccccc2[S+]([O-])c2ccc(C(=O)NCCCN3CCOCC3)cc21 (centres unmarked) [Inhibitor 1075],,,> 3000,
Cc1ccc(C)c(CN2C(=O)c3ccccc3[S+]([O-])c3ccc(C(=O)NCCCSC4CCCCC4)cc32)c1 (centres unmarked) [Inhibitor 83-09],> 3000,,,
CCN1C(=O)c2ccccc2[S+]([O-])c2ccc(C(=O)NCCN3CCCCCC3)cc21 (centres unmarked) [Inhibitor 1081],,,> 3000,
O=C(NCCN1CCN(Cc2ccccc2)CC1)c1ccc2c(c1)N(Cc1cccc(Cl)c1)C(=O)c1ccccc1[S+]2[O-] (centres unmarked) [Inhibitor 83-69],2500 ± 700,,,"inhibition of MshC in words, compounds lacking the basic amino group or with groups in excess of 10 carbons on the remote amino residue: little or no inhibition"
CCC1CCCCN1CCNC(=O)c1ccc2c(c1)N(Cc1ccc(F)cc1Cl)C(=O)c1ccccc1S2 (centres unmarked) [Inhibitor 1806],,Significant inhibition,~750,"inhibition of MshC in words, Z is a benzyl moiety bearing one or more halogens: Measurable inhibition"
COC(=O)c1cc(NC(=O)c2ccc3c(c2)N(Cc2cccc(Cl)c2)C(=O)c2ccccc2[S+]3[O-])cc(C(=O)OC)c1 (centres unmarked) [Inhibitor 1986],,,> 3000,
O=C(NCCCN1CCC(Cc2ccccc2)CC1)c1ccc2c(c1)N(Cc1cccc(Cl)c1)C(=O)c1ccccc1S2(=O)=O [Inhibitor 1949],,,> 3000,"inhibition of MshC in words, compounds lacking the basic amino group or with groups in excess of 10 carbons on the remote amino residue: little or no inhibition"
CCC1CCCCN1CCCNC(=O)c1ccc2c(c1)N(Cc1cccc(C)c1)C(=O)c1ccccc1S2(=O)=O (centres unmarked) [Inhibitor 83-21],~2000,,,
CN(CCCNC(=O)c1ccc2c(c1)N(Cc1cccc(Cl)c1)C(=O)c1ccccc1[S+]2[O-])c1ccccc1 (centres unmarked) [Inhibitor 83-63],> 2000,,,
CCN1C(=O)c2ccccc2Sc2ccc(C(=O)NCCCN3CCCCC3)cc21 [Inhibitor 1754],,Significant inhibition,~2000,
CC1CCCN(CCCNC(=O)c2ccc3c(c2)N(Cc2cccc(Cl)c2)C(=O)c2ccccc2[S+]3[O-])C1 (centres unmarked) [Inhibitor 83-64],150 ± 30,Significant inhibition,,"inhibition of MshC in words, 1,3-diaminopropyl residue with remote amino residue capable of protonation: measurable inhibition; inhibition of MshC in words, Z is a benzyl moiety bearing one or more halogens: Measurable inhibition"
CC1CC(C)CN(CCCNC(=O)c2ccc3c(c2)N(Cc2cccc(Cl)c2)C(=O)c2ccccc2S3(=O)=O)C1 (centres unmarked) [Inhibitor 83-77],2300 ± 700,,,

Compound,IC50 (IC50) [µM],"inhibition of MshC in words, compounds grouped by X (X=S, X=SO, X=SO2)","IC50 (IC50, μM) [µM]",also measured
CCCN(CCC)CCCNC(=O)c1ccc2c(c1)N(Cc1cccc(Cl)c1)C(=O)c1ccccc1S2(=O)=O [Inhibitor 83-83],980 ± 40,Significant inhibition,,"inhibition of MshC in words, 1,3-diaminopropyl residue with remote amino residue capable of protonation: measurable inhibition; inhibition of MshC in words, Z is a benzyl moiety bearing one or more halogens: Measurable inhibition"
CCOCCCNC(=O)c1ccc2c(c1)N(Cc1cccc(Cl)c1)C(=O)c1ccccc1[S+]2[O-] (centres unmarked) [Inhibitor 1939],,,3200 ± 1000,"inhibition of MshC in words, compounds lacking the basic amino group or with groups in excess of 10 carbons on the remote amino residue: little or no inhibition"
CC1CCCN(CCCNC(=O)c2ccc3c(c2)N(Cc2ccc(F)cc2)C(=O)c2ccccc2[S+]3[O-])C1 (centres unmarked) [Inhibitor 1051],,Significant inhibition,710 ± 20,"inhibition of MshC in words, 1,3-diaminopropyl residue with remote amino residue capable of protonation: measurable inhibition; inhibition of MshC in words, Z is a benzyl moiety bearing one or more halogens: Measurable inhibition"
O=C(NCc1cccs1)c1ccc2c(c1)N(Cc1cccc(Cl)c1)C(=O)c1ccccc1S2 [Inhibitor 1781],,,> 3000,
Cc1cccc(CN2C(=O)c3ccccc3S(=O)(=O)c3ccc(C(=O)NCCCN4CCCC4)cc32)c1 [Inhibitor 83-22],> 3000,,,
CC(C)CN(CCCNC(=O)c1ccc2c(c1)N(Cc1ccc(Cl)cc1)C(=O)c1ccccc1S2(=O)=O)CC(C)C [Inhibitor 83-34],> 3000,,,
CC1CC(C)CN(CCCNC(=O)c2ccc3c(c2)N(Cc2ccccc2)C(=O)c2ccccc2S3(=O)=O)C1 (centres unmarked) [Inhibitor 83-49],~2000,,,
O=C(NCCCN1CCCC1)c1ccc2c(c1)N(Cc1cccc(Cl)c1)C(=O)c1ccccc1[S+]2[O-] (centres unmarked) [Inhibitor 83-72],97 ± 26,Significant inhibition,,"inhibition of MshC in words, 1,3-diaminopropyl residue with remote amino residue capable of protonation: measurable inhibition; inhibition of MshC in words, Z is a benzyl moiety bearing one or more halogens: Measurable inhibition"
Cc1ccc(C)c(CN2C(=O)c3ccccc3S(=O)(=O)c3ccc(C(=O)NCCCSC4CCCCC4)cc32)c1 [Inhibitor 83-47],> 3000,,,"inhibition of MshC in words, compounds lacking the basic amino group or with groups in excess of 10 carbons on the remote amino residue: little or no inhibition"
CCN1C(=O)c2ccccc2[S+]([O-])c2ccc(C(=O)NCCCSC3CCCCC3)cc21 (centres unmarked) [Inhibitor 83-18],> 3000,,,
CCN1C(=O)c2ccccc2Sc2ccc(C(=O)NCCCN(CC(C)C)CC(C)C)cc21 [Inhibitor 1751],,,> 3000,
CC1CC(C)CN(CCCNC(=O)c2ccc3c(c2)N(Cc2cccc(Cl)c2)C(=O)c2ccccc2[S+]3[O-])C1 (centres unmarked) [Inhibitor 83-65],,Significant inhibition,,"inhibition of MshC in words, 1,3-diaminopropyl residue with remote amino residue capable of protonation: measurable inhibition; inhibition of MshC in words, Z is a benzyl moiety bearing one or more halogens: Measurable inhibition"
CCC1CCCN(CCCNC(=O)c2ccc3c(c2)N(Cc2cccc(Cl)c2)C(=O)c2ccccc2[S+]3[O-])C1 (centres unmarked) [Inhibitor 83-66],80 ± 20,Significant inhibition,,"inhibition of MshC in words, 1,3-diaminopropyl residue with remote amino residue capable of protonation: measurable inhibition; inhibition of MshC in words, Z is a benzyl moiety bearing one or more halogens: Measurable inhibition"
CCN1C(=O)c2ccccc2[S+]([O-])c2ccc(C(=O)NCCCN3CCN(C)CC3)cc21 (centres unmarked) [Inhibitor 83-14],> 3000,,,
Cc1cccc(CN2C(=O)c3ccccc3S(=O)(=O)c3ccc(C(=O)NCCCN(C)C4CCCCC4)cc32)c1 [Inhibitor 83-25],> 3000,,,
CC(C)CN(CCCNC(=O)c1ccc2c(c1)N(Cc1ccccc1)C(=O)c1ccccc1S2(=O)=O)CC(C)C [Inhibitor 83-53],> 3000,,,
CC1CCCN(CCCNC(=O)c2ccc3c(c2)N(Cc2cccc(Cl)c2)C(=O)c2ccccc2S3(=O)=O)C1 (centres unmarked) [Inhibitor 83-57],~1000,,,
CCCCSCCCNC(=O)c1ccc2c(c1)N(Cc1cccc(Cl)c1)C(=O)c1ccccc1[S+]2[O-] (centres unmarked) [Inhibitor 83-74],> 3000,,,"inhibition of MshC in words, compounds lacking the basic amino group or with groups in excess of 10 carbons on the remote amino residue: little or no inhibition"
COC(=O)c1cc2c(cc1NC(=O)c1ccc3c(c1)N(Cc1cccc(Cl)c1)C(=O)c1ccccc1[S+]3[O-])OCCO2 (centres unmarked) [Inhibitor 1984],,,> 3000,
Cc1ccc(C)c(CN2C(=O)c3ccccc3[S+]([O-])c3ccc(C(=O)NCCCN(C)C4CCCCC4)cc32)c1 (centres unmarked) [Inhibitor 83-08],~3000,Significant inhibition,,
Cc1ccc(C)c(CN2C(=O)c3ccccc3[S+]([O-])c3ccc(C(=O)NCCCN4CCCCCC4)cc32)c1 (centres unmarked) [Inhibitor 83-07],650 ± 50,Significant inhibition,,"inhibition of MshC in words, 1,3-diaminopropyl residue with remote amino residue capable of protonation: measurable inhibition; inhibition of MshC in words, Z benzyl moiety with methyl groups in the 2,5 positions or unsubstituted: Weak but detectable inhibition"
